US11351168B1 (Celgene CAR LLC, priority 2008, dated 2022)

system: BTK signaling in Ramos cells; assay: BTK Ramos cellular assay (phosphorylation of BTK substrate PLCγ2); type: cell-based, human; settings: 1 hour compound, anti-IgM stimulation, read-out: BTK Inhibition (Ramos cellular)
Procedure: Compounds I-2, I-4, and I-7 were assayed in Ramos human Burkitt lymphoma cells. Ramos cells were grown in suspension in T225 flasks, spun down, resuspended in 50 ml serum-free media and incubated for 1 hour. Compound was added to Ramos cells in serum free media to a final concentration of 1, 0.1, 0.01, or 0.001 μM. Ramos cells were incubated with compound for 1 hour, washed again and resuspended in 100 ul serum-free media. Cells were then stimulated with 1 μg of goat F(ab′)2 Anti-Human IgM and incubated on ice for 10 minutes to activate B cell receptor signaling pathways. After 10 minutes, the cells were washed once with PBS and then lysed on ice with Invitrogen Cell Extraction buffer. 16 μg total protein from lysates were loaded on gel and blots were probed for phosphorylation of the BTK substrate PLCγ2.

Row | Compound | IC50 [nM]
1 | C=CC(=O)N1CCOc2ccc(Nc3nc(Nc4ccc5cn[nH]c5c4)ncc3C(C)=O)cc21 [Compound I-153, 1-{6-[5-Acetyl-2-(1H-indazol-6-ylamino)-pyrimidin-4-ylamino]-2,3-dihydro-benzo[1,4]oxazin-4-yl}-propenone] | < 10

same assay, conditions: Homo sapiens, 1 hour compound, anti-IgM stimulation, read-out: BTK Inhibition (Ramos cellular)

Row | Compound | IC50 [nM]
2 | C=CC(=O)Nc1cccc(Nc2nc(Nc3ccc(OCCCNC(=O)OC(C)(C)C)cc3)ncc2F)c1 [Compound I-198, tert-butyl 3-(4-(4-(3-acrylamidophenylamino)-5-fluoropyrimidin-2-ylamino)phenoxy)propylcarbamate] | < 10
3 | C=CC(=O)Nc1cccc(Nc2nc(Nc3cc(OC)c(OC)c(OC)c3)ncc2F)c1 [Compound I-133, 4-(3-acrylamidophenylamino)-5-fluoro-2-(3,4,5-trimethoxyphenylamino)-pyrimidine] | 10 to 100
4 | C=CC(=O)Nc1cccc(Nc2nc(Nc3ccc(OCCOC)nc3)ncc2C(C)=O)c1 [Compound I-122, N-(3-{5-Acetyl-2-[6-(2-methoxy-ethoxy)-pyridin-3-ylamino]-pyrimidin-4-ylamino}-phenyl)-acrylamide] | < 10
5 | C=CC(=O)Nc1cccc(Nc2nc(Nc3ccc(OCCOC)cc3)ncc2C(C)=O)c1 [Compound I-124, N-(3-{5-Acetyl-2-[4-(2-methoxy-ethoxy)-phenylamino]-pyrimidin-4-ylamino}-phenyl)-acrylamide] | < 10
6 | C=CC(=O)Nc1cccc(Nc2nc(Nc3ccc(OCCOC)nc3)ncc2F)c1 [Compound I-103, N-(3-(5-fluoro-2-(6-(2-methoxyethoxy)pyridine-3-ylamino)pyrimidin-4-ylamino)phenyl)acrylamide] | < 10
7 | C=CC(=O)Nc1cccc(Oc2nc(Nc3ccc(OCCOC)cc3)ncc2C2CC2)c1 [Compound I-131, N-(3-(5-cyclopropyl-2-(4-(2-methoxyethoxy)phenylamino)pyrimidin-4-yloxy)phenyl)acrylamide] | < 10
8 | C=CC(=O)N1CCCC(Nc2nc(Nc3ccccc3)ncc2C)C1 (stereo not shown) [Compound I-27] | 10 to 100
9 | C=CC(=O)Nc1cccc(Nc2nc(Nc3ccc(OC)c(OC)c3)ncc2F)c1 [Compound I-134, 4-(3acrylamidophenylamino)-5-fluoro-2-(3,4-dimethoxyphenylamino)-pyrimidine] | 10 to 100
10 | C=CC(=O)Nc1cccc(Nc2nc(Nc3ccc(OC)nc3)ncc2C(C)=O)c1 [Compound I-189, N-{3-[5-Acetyl-2-(6-methoxy-pyridin-3-ylamino)-pyrimidin-4-ylamino]-phenyl}-acrylamide] | 10 to 100
11 | C=CC(=O)Nc1cccc(Nc2nc(Nc3ccc(OCC4CCN(C)CC4)nc3)ncc2F)c1 [Compound I-78, N-(3-(5-fluoro-2-(6-((1-methylpiperidin-4-yl)methoxy)pyridin-3-ylamino)pyrimidin-4-ylamino)phenyl)acrylamide] | < 10
12 | C=CC(=O)Nc1cccc(Nc2nc(Nc3ccc(OC)nc3)ncc2C#N)c1 [Compound I-173, N-(3-(5-cyano-2-(6-methoxypyridin-3-ylamino)pyrimidin-4-ylamino)phenyl)acrylamide] | < 10
13 | C=CC(=O)Nc1cccc(Oc2nc(Nc3ccc(OC)nc3)ncc2F)c1 [Compound I-217] | < 10
14 | [2H]C([2H])([2H])Oc1ccc(Nc2ncc(F)c(Nc3cccc(NC(=O)C=C)c3)n2)cn1 [Compound I-95, N-(3-(5-fluoro-2-(6-(trideutereomethoxy)pyridine-3-ylamino)pyrimidin-4-ylamino)phenyl)acrylamide] | < 10
15 | C=CC(=O)N1CCOc2ccc(Nc3nc(Nc4ccc(OC)nc4)ncc3F)cc21 [Compound I-194, 1-(6-(5-fluoro-2-(6-methoxypyridin-3-ylamino)pyrimidin-4-ylamino)-2H-benzo[b][1,4]oxazin-4(3H)-yl)prop-2-en-1-one] | < 10
16 | C=CC(=O)N1CCOc2ccc(Nc3nc(Nc4ccc(N5CCOCC5)cc4)ncc3C(C)=O)cc21 [Compound I-169, 1-{6-[5-Acetyl-2-(4-morpholin-4-yl-phenylamino)-pyrimidin-4-ylamino]-2,3-dihydro-benzo[1,4]oxazin-4-yl}-propenone] | < 10
17 | C=CC(=O)Nc1ccc(Nc2nc(Nc3ccccc3)ncc2C)cc1 [Compound I-39, N-(4-(5-methyl-2-(phenylamino)pyrimidin-4-ylamino)phenyl) acrylamide] | 10 to 100
18 | C=CC(=O)N1CCOc2ccc(Nc3nc(Nc4ccc(OCCO)nc4)ncc3C(C)=O)cc21 [Compound I-128, 1-(6-{5-Acetyl-2-[6-(2-hydroxy-ethoxy)-pyridin-3-ylamino]-pyrimidin-4-ylamino}-2,3-dihydro-benzo[1,4]oxazin-4-yl)-propenone] | 10 to 100
19 | C=CC(=O)Nc1cccc(Nc2nc(Nc3cccc(S(N)(=O)=O)c3)ncc2F)c1 [Compound I-160, N-(3-(5-fluoro-2-(3-sulfamoylphenylamino)pyrimidin-4-ylamino)phenyl)acrylamide] | 10 to 100

Row | Compound | IC50 [nM]
20 | C=CC(=O)Nc1cccc(Nc2nc(Nc3ccc4c(c3)N(S(C)(=O)=O)CCO4)ncc2F)c1 [Compound I-140, N-(3-(2-(4-methylsulfonyl-2,3-dihydrobenzo[1,4]oxazin-6-yl)amino-5-fluoropyrimidin-4-ylamino)phenyl)acrylamide] | 10 to 100
21 | C=CC(=O)N1CCOc2ccc(Nc3nc(Nc4ccc(N5CCCC5=O)cc4)ncc3C(C)=O)cc21 [Compound I-152, 1-{4-[5-Acetyl-4-(4-acryloyl-3,4-dihydro-2H-benzo[1,4]oxazin-6-ylamino)-pyrimidin-2-ylamino]-phenyl}-pyrrolidin-2-one] | 10 to 100
22 | C=CC(=O)Nc1cccc(Nc2nc(Nc3ccc(OCc4ccccn4)c(Cl)c3)ncc2F)c1 [Compound I-86, N-(3-(2-(3-chloro-4-(pyridin-2-ylmethoxy)phenylamino)-5-fluoropyrimidin-4-ylamino)phenyl)acrylamide] | < 10
23 | C=CC(=O)Nc1cc(Nc2nc(Nc3ccc(OC(C)C)nc3)ncc2F)ccc1Cl [Compound I-107, N-(2-chloro-5-(5-fluoro-2-(6-isopropoxypyridin-3-ylamino)pyrimidin-4-ylamino)phenyl)acrylamide] | 10 to 100
24 | C=CC(=O)Nc1cccc(Nc2nc(Nc3ccc(OCCCS(C)(=O)=O)nc3)ncc2F)c1 [Compound I-80, N-(3-(5-fluoro-2-(6-(3-(methylsulfonyl)propoxy)pyridin-3-ylamino)pyrimidin-4-ylamino)phenyl)acrylamide] | < 10
25 | C=CC(=O)Nc1cccc(Nc2nc(Nc3cccc(OCCCNC(=O)OC(C)(C)C)c3)ncc2C)c1 [Compound I-45, tert-butyl 3-(3-(4-(3-acrylamidophenylamino)-5-methylpyrimidin-2-ylamino)phenoxy)propylcarbamate] | < 10
26 | C=CC(=O)Nc1cccc(Nc2nc(Nc3ccc(OC)nc3)ncc2C(N)=O)c1 [Compound I-209, 4-(3-acrylamidophenylamino)-2-(6-methoxypyridin-3-ylamino)pyrimidine-5-carboxamide] | 10 to 100
27 | C=C(C)C(=O)c1ccc(Nc2nc(Nc3ccccc3)ncc2F)cc1 [Compound I-185, 1-(4-(5-fluoro-2-(phenylamino)pyrimidin-4-ylamino)phenyl)-2-methylprop-2-en-1-one] | 100 to 1000
28 | C=CC(=O)Nc1cccc(Nc2nc(Nc3ccc(OCCOC)cc3)ncc2C2CC2)c1 [Compound I-139, N-(3-(5-cyclopropyl-2-(4-(2-methoxyethoxy)phenylamino)pyrimidin-4-ylamino)phenyl)acrylamide] | 10 to 100
29 | C=CC(=O)Nc1cccc(Nc2nc(Nc3ccc(OCC(C)(C)O)c(F)c3)ncc2F)c1 [Compound I-315, N-(3-(5-fluoro-2-(3-fluoro-4-(2-hydroxy-2-methylpropoxy)phenylamino)pyrimidin-4-ylamino)phenyl)acrylamide] | < 10
30 | C=CC(=O)N1Cc2ccc(Nc3nc(Nc4ccc(OC)nc4)ncc3F)cc2C1 [Compound I-165, 1-(5-(5-fluoro-2-(6-methoxypyridin-3-ylamino)pyrimidin-4-ylamino)isoindolin-2-yl)prop-2-en-1-one] | 10 to 100
31 | C=CC(=O)Nc1cccc(Nc2nc(Nc3cccc(S(N)(=O)=O)c3)ncc2C)c1 [Compound I-33, N-(3-(5-methyl-2-(3-sulfamoylphenylamino)pyrimidin-4-ylamino)phenyl)acrylamide] | < 10
32 | C=CC(=O)Nc1ccc(C)c(Nc2ncc(C)c(Nc3cccc(C)c3)n2)c1 [Compound I-8, N-(4-methyl-3-(5-methyl-4-(m-tolylamino)pyrimidin-2-ylamino)phenyl)acrylamide] | 100 to 1000
33 | C=CC(=O)Nc1cc(Nc2nc(Nc3ccc(OCCOC)cc3)ncc2F)ccc1Cl [Compound I-108, N-(2-chloro-5-(5-fluoro-2-(4-(2-methoxyethoxy)phenylamino)pyrimidin-4-ylamino)phenyl)acrylamide] | 10 to 100
34 | C=CC(=O)Nc1cccc(Nc2nc(Nc3ccc4c(c3)NCCO4)ncc2F)c1 [Compound I-174] | < 10
35 | C=CC(=O)Nc1cccc(Nc2nc(Nc3ccccc3)ncc2C#N)c1 [Compound I-157, N-(3-(5-cyano-2-(phenylamino)pyrimidin-4-ylamino)phenyl)acrylamide] | < 10
36 | C=CC(=O)Nc1cccc(Nc2nc(Nc3cccc(OCCO)c3)ncc2F)c1 [Compound I-105, N-(3-(5-fluoro-2-(3-(2-hydroxyethoxy)phenylamino)pyrimidin-4-ylamino)phenyl)acrylamide] | < 10
37 | C=CC(=O)Nc1cccc(Oc2nc(Nc3ccc(OC)nc3)ncc2C(C)=O)c1 [Compound I-188, N-{3-[5-Acetyl-2-(6-methoxy-pyridin-3-ylamino)-pyrimidin-4-yloxy]-phenyl}-acrylamide] | < 10
